Measured values reported in patent US12612410B2 (CHILDREN'S HOSPITAL MEDICAL CENTER, priority 2020, dated 2026).

tested on: MOLM14 (D835Y) cells; experiment: Combination drug screening with Venetoclax in MOLM14 (D835Y) cells; assay type: cell-based; design: key to Sum Excess HSA: negative = synergy, positive = antagonism with Venetoclax; relative score; conditions: 10 × 10 dataset
Protocol: Combination drug therapy has the potential to produce enhanced effects with lower side effects not obtained using either agent alone, or beyond the additive effect of the different concentrations of the two different agents. To determine whether enhanced effects are observed in different drug combinations in the setting of FLT3 resistance, combination drug screening was performed as previously described (Mathews-Griner, L. A. et al., Proc. Nat. Acad. Sci., 2014, 111:2439-2454; Lin, G. L. et al., Sci. Trans. Med., 2019, 11:eaaw0064). Briefly, 10 nL of compounds were acoustically dispensed into 1536-well white polystyrene tissue culture-treated plates with an Echo 550 acoustic liquid handler (Labcyte). MOLM14 (D835Y) Cells were then added to compound-containing plates at a density of 500-cells/well in 5 μL of medium. A 10-point custom concentration range was used for all listed drugs. Plates were incubated for 48 hours at standard incubator conditions covered by a stainless steel gasketed lid to prevent evaporation. 48 h post compound addition, 3 μL of Cell Titer Glo (Promega) were added to each well and plates were incubated at room temperature for 15 minutes with the stainless-steel lid in place. Luminescence readings were taken using a Viewlux imager (PerkinElmer) with a 2 second exposure time per plate.
The sum excess HSA scores for Compounds 25, 31, 35, 50, 51, 80, 82, 97, 118, and 119 in Table 28 are used herein to quantitate drug interactions for enhanced pharmacological effects in the MOLM14 (D835Y) cell line. This is a FLT3-ITD cell line that harbors a FLT3 resistance mutation in the tyrosine kinase domain at position 835 (D835Y). More information on excess HSA scores can be found in Vlot, Anna H. C. et al., Drug Discovery Today, 2019, 24(12):2286-2298. […] However, different methodologies may yield different numerical scores, and different definitions of what constitutes a deviation from mere additivity vs true drug synergy. Table 28 summarizes the combination results of Compounds 25, 31, 35, 50, 51, 80, 82, 97, 118, and 119 with Venetoclax. A large negative sum excess HSA score indicates profound synergism with Venetoclax, whereas a positive excess HSA score indicates antagonism with Venetoclax in certain drug combinations.
The degree to which combination therapy has to potential to produce enhanced effects with lower side effects not obtained using either agent alone, or beyond the additive effect of the different concentrations of the two different agents depends on the nature of the drugs used in the combination, and the specific doses/concentrations at which they are ultimately used in the therapeutic regimen. A negative excess sum HSA score illustrates that the drug combination is better than either drug alone (at the concentrations being studied), and the sum excess HSA score is a measurement of the overall deviation from additivity that is observed across the entire matrix of concentrations studied. […] However, the utility in certain drug combinations vs others should not be distinguished based on cutoffs between excess sum HSA scores, because the score itself is only a relative indicator that is completely dependent on experimental design and is not an absolute number. Furthermore, the concept of what constitutes clinically meaningful drug synergy is something that is still being debated, not only between pharmacologists and physicians, but amongst pharmacologists themselves. The data in Table 28 illustrate that the nature of the combined effect is dependent on the characteristics of each individual compound, as not every compound produced a synergistic interaction in combination with Venetoclax.

| SMILES | Interaction with Venetoclax |
| --- | --- |
| CC(C)(O)c1cn2c(-c3nc(N[C@H]4CNCC[C@@H]4F)c(F)cc3F)cnc2cn1 [Compound 35, 2-(3-(3,5-difluoro-6-(((3S,4S)-4-fluoropiperidin-3-yl)amino)pyridin-2-yl)imidazo[1,2-a]pyrazin-6-yl)propan-2-ol] | Antagonistic |
| FC(F)c1cn2c(-c3cccc(N[C@H]4CNCC[C@@H]4F)n3)cnc2cn1 [Compound 25, 6-(6-(difluoromethyl)imidazo[1,2-a]pyrazin-3-yl)-N-((3S,4S)-4-fluoropiperidin-3-yl)pyridin-2-amine] | Synergistic |

same assay, conditions: combination with Venetoclax, 10 × 10 dataset, 48 hours

| SMILES | Sum Excess HSA |
| --- | --- |
| CC(C)(O)c1cn2c(-c3nc(N[C@H]4CNCC[C@@H]4F)c(F)cc3F)cnc2cn1 [Compound 35, 2-(3-(3,5-difluoro-6-(((3S,4S)-4-fluoropiperidin-3-yl)amino)pyridin-2-yl)imidazo[1,2-a]pyrazin-6-yl)propan-2-ol] | 386.4 |
| F[C@H]1CNC[C@@H]1Nc1cccc(-c2cnc3cnc(C4CC4)cn23)n1 [Compound 50, 6-(6-cyclopropylimidazo[1,2-a]pyrazin-3-yl)-N-((3S,4S)-4-fluoropyrrolidin-3-yl)pyridin-2-amine] | −552 |
| FC(F)c1cn2c(-c3cccc(N[C@H]4CNCC[C@@H]4F)n3)cnc2cn1 [Compound 25, 6-(6-(difluoromethyl)imidazo[1,2-a]pyrazin-3-yl)-N-((3S,4S)-4-fluoropiperidin-3-yl)pyridin-2-amine] | −834.6 |
| CC(O)(c1cn2c(-c3cccc(N[C@H]4CNCC[C@@H]4F)n3)cnc2cn1)C(F)(F)F (single isomer, unassigned) [Compound 80] | −261.7 |
| CC(O)(c1cn2c(-c3cccc(N[C@H]4CNCC[C@@H]4F)n3)cnc2cn1)C(F)(F)F (single isomer, unassigned) [Compound 82] | −155.8 |
| O=C1NCCN1c1cn2c(-c3cccc(N[C@H]4CNCC[C@@H]4F)n3)cnc2cn1 [Compound 118, 1-(3-(6-(((3S,4S)-4-fluoropiperidin-3-yl)amino)pyridin-2-yl)imidazo[1,2-a]pyrazin-6-yl)imidazolidin-2-one] | −550.9 |
| CC(C)(O)c1cn2c(-c3cccc(N[C@H]4CNCC[C@@H]4F)n3)cnc2cn1 [Compound 31, 2-(3-(6-(((3S,4S)-4-fluoropiperidin-3-yl)amino)pyridin-2-yl)imidazo[1,2-a]pyrazin-6-yl)propan-2-ol] | −150.3956 |
| F[C@H]1CCNC[C@@H]1Nc1cccc(-c2cnc3cnc(C4CC4)cn23)n1 [Compound 51, 6-(6-cyclopropylimidazo[1,2-a]pyrazin-3-yl)-N-((3S,4S)-4-fluoropiperidin-3-yl)pyridin-2-amine] | −644.5 |
| O=C1CCCN1c1cn2c(-c3cccc(N[C@H]4CNCC[C@@H]4F)n3)cnc2cn1 [Compound 119, 1-(3-(6-(((3S,4S)-4-fluoropiperidin-3-yl)amino)pyridin-2-yl)imidazo[1,2-a]pyrazin-6-yl)pyrrolidin-2-one] | −762 |
| O=S1(=O)CCCN1c1cn2c(-c3cccc(N[C@H]4CNCC[C@@H]4F)n3)cnc2cn1 [Compound 97, 2-(3-(6-(((3S,4S)-4-fluoropiperidin-3-yl)amino)pyridin-2-yl)imidazo[1,2-a]pyrazin-6-yl)isothiazolidine 1,1-dioxide] | −171.7 |
